Measurements as given in US12130255B2, “High-throughput label-free enzymatic bioassays using DESI-MS” (priority 2020, dated 2024).
pIC50: −log10 of the molar value.

What was measured:
[1] = target: T1, acetylcholinesterase (AChE) (Homo sapiens, UniProt P22303); test: DESI-MS label-free acetylcholinesterase inhibition assay, dose-response curves; type: biochemical
[2] = target: T1, acetylcholinesterase (AChE); test: DESI-MS AChE inhibition, Dixon plot (inhibitor and substrate concentrations varied); type: biochemical
Protocol: For kinetic determinations the reactions were incubated for 50 minutes, with the concentration of substrate held kept between 0.4 to 1 mM, while the concentration of enzyme was set to 180 ng/mL. Note that only concentrations within the calibration range were used. The calibrated result (inset) is used to determine v0 of the reaction. The data shown come from eight instrumental replicates from a single mixture (128 spots), acquired in less than 2.5 minutes.
Further characterization of the inhibitors was achieved by screening simultaneously different concentrations of inhibitor and the substrate in order to obtain the Dixon plot (FIG. 11). […] This Dixon plot required that 24 independent progress curves be determined: duplicate measurements taken on 12 combinations of concentrations of inhibitor (0, 40, 100, 200 nM) and substrate (0.6, 0.8, 1.0 mM). This required the analysis of 3072 spots, carried out in approx. 35 minutes, with simultaneous incubation time of 50 minutes.

T1 sequence (P22303 32-614, species assumed): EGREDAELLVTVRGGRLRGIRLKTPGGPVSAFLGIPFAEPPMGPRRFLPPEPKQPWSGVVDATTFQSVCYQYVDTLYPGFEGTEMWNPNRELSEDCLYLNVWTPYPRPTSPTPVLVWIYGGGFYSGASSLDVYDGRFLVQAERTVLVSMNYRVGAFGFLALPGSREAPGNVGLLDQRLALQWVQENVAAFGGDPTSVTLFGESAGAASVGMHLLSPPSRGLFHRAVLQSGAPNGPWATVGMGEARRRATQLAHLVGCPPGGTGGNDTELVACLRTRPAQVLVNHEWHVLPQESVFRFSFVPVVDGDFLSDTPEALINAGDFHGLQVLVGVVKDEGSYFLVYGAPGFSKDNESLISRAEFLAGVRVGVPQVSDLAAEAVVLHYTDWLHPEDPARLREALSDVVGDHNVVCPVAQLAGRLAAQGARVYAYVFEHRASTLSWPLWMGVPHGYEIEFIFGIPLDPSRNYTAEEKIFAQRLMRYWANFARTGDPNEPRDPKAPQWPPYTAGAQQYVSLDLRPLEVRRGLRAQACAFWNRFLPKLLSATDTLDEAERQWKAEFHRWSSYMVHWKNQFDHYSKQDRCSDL

Structure (SMILES)	pIC50 [1]	type of inhibition (intersection of the lines in the Dixon plot) [2]
COc1ccc2c3c1O[C@H]1C(=O)CC[C@H]4[C@@H](C2)N(C)CC[C@]314 [hydrocodone]	3.94	
CN(C)C(=O)Oc1cccc([N+](C)(C)C)c1 [neostigmine]		competitive inhibitor
COc1ccc2c3c1O[C@H]1C(=O)CC[C@@]4(O)[C@@H](C2)N(C)CC[C@]314 [oxycodone]	6.91	
